Measurements taken from PubChem BioAssay (NCI).
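Following 48 hours of exposure in 96-well plates, responses at five concentrations were used to interpolate endpoints linearly. At the TGI there is no net growth.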

Legend:
Assay in all cases: DTP human tumour cell line panel, 48 h
HL-60(TB) leukemia = test system: HL-60(TB) leukemia
NCI-H522 lung = test system: NCI-H522 lung
SW-620 colon = test system: SW-620 colon
MALME-3M melanoma = test system: MALME-3M melanoma
UO-31 renal = test system: UO-31 renal
A498 renal = test system: A498 renal
OVCAR-5 ovarian = test system: OVCAR-5 ovarian
M14 melanoma = test system: M14 melanoma
SK-MEL-5 melanoma = test system: SK-MEL-5 melanoma
HOP-62 NSCLC = test system: HOP-62 NSCLC
786-0 renal = test system: 786-0 renal
A549 NSCLC = test system: A549 NSCLC
SK-MEL-2 melanoma = test system: SK-MEL-2 melanoma
SK-OV-3 ovarian = test system: SK-OV-3 ovarian
SNB-19 CNS = test system: SNB-19 CNS
MOLT-4 leukemia = test system: MOLT-4 leukemia
T-47D breast = test system: T-47D breast
ACHN renal = test system: ACHN renal
NCI-H23 lung = test system: NCI-H23 lung
SK-MEL-28 melanoma = test system: SK-MEL-28 melanoma
KM12 colon = test system: KM12 colon
U251 CNS = test system: U251 CNS
SF-268 CNS = test system: SF-268 CNS
LOX IMVI melanoma = test system: LOX IMVI melanoma
NCI-H460 lung = test system: NCI-H460 lung
OVCAR-3 ovarian = test system: OVCAR-3 ovarian
EKVX NSCLC = test system: EKVX NSCLC
CCRF-CEM leukemia = test system: CCRF-CEM leukemia
SR leukemia = test system: SR leukemia
UACC-62 melanoma = test system: UACC-62 melanoma
SNB-75 CNS = test system: SNB-75 CNS
COLO 205 colon = test system: COLO 205 colon
NCI-H226 lung = test system: NCI-H226 lung
DU-145 prostate = test system: DU-145 prostate
MCF7 breast = test system: MCF7 breast
RXF 393 renal = test system: RXF 393 renal
IGROV1 ovarian = test system: IGROV1 ovarian
HCT-116 colon = test system: HCT-116 colon
HS 578T breast = test system: HS 578T breast
SF-295 CNS = test system: SF-295 CNS
PC-3 prostate = test system: PC-3 prostate
HT29 colon = test system: HT29 colon
HCT-15 colon = test system: HCT-15 colon
MDA-MB-231 breast = test system: MDA-MB-231 breast
HCC-2998 colon = test system: HCC-2998 colon
OVCAR-4 ovarian = test system: OVCAR-4 ovarian
TK-10 renal = test system: TK-10 renal
BT-549 breast = test system: BT-549 breast
RPMI-8226 leukemia = test system: RPMI-8226 leukemia
SF-539 CNS = test system: SF-539 CNS
NCI/ADR-RES ovarian = test system: NCI/ADR-RES ovarian
K-562 leukemia = test system: K-562 leukemia
SN12C renal = test system: SN12C renal
MDA-MB-435 = test system: MDA-MB-435
HOP-92 NSCLC = test system: HOP-92 NSCLC
OVCAR-8 ovarian = test system: OVCAR-8 ovarian
CAKI-1 renal = test system: CAKI-1 renal
UACC-257 melanoma = test system: UACC-257 melanoma

CNc1ccccc1S(=O)(=O)c1ccccc1[N+](=O)[O-]
TGI (HL-60(TB) leukemia): > 100 µM | TGI (NCI-H522 lung): > 100 µM | TGI (SW-620 colon): > 100 µM | TGI (MALME-3M melanoma): > 100 µM | TGI (UO-31 renal): > 100 µM | TGI (A498 renal): > 100 µM | TGI (OVCAR-5 ovarian): > 100 µM | TGI (M14 melanoma): > 100 µM | TGI (SK-MEL-5 melanoma): > 100 µM | TGI (HOP-62 NSCLC): > 100 µM | TGI (786-0 renal): > 100 µM | TGI (A549 NSCLC): > 100 µM | TGI (SK-MEL-2 melanoma): > 100 µM | TGI (SK-OV-3 ovarian): > 100 µM | TGI (SNB-19 CNS): > 100 µM | TGI (MOLT-4 leukemia): > 100 µM | TGI (T-47D breast): > 100 µM | TGI (ACHN renal): > 100 µM | TGI (NCI-H23 lung): > 100 µM | TGI (SK-MEL-28 melanoma): > 100 µM | TGI (KM12 colon): > 100 µM | TGI (U251 CNS): > 100 µM | TGI (SF-268 CNS): > 100 µM | TGI (LOX IMVI melanoma): > 100 µM | TGI (NCI-H460 lung): > 100 µM | TGI (OVCAR-3 ovarian): > 100 µM | TGI (EKVX NSCLC): > 100 µM | TGI (CCRF-CEM leukemia): > 100 µM | TGI (SR leukemia): > 100 µM | TGI (UACC-62 melanoma): > 100 µM | TGI (SNB-75 CNS): > 100 µM | TGI (COLO 205 colon): > 100 µM | TGI (NCI-H226 lung): > 100 µM | TGI (DU-145 prostate): > 100 µM | TGI (MCF7 breast): > 100 µM | TGI (RXF 393 renal): > 100 µM | TGI (IGROV1 ovarian): > 100 µM | TGI (HCT-116 colon): > 100 µM | TGI (HS 578T breast): > 100 µM | TGI (SF-295 CNS): > 100 µM | TGI (PC-3 prostate): > 100 µM | TGI (HT29 colon): > 100 µM | TGI (HCT-15 colon): > 100 µM | TGI (MDA-MB-231 breast): > 100 µM | TGI (HCC-2998 colon): > 100 µM | TGI (OVCAR-4 ovarian): > 100 µM | TGI (TK-10 renal): > 100 µM | TGI (BT-549 breast): 65.3 µM | TGI (RPMI-8226 leukemia): > 100 µM | TGI (SF-539 CNS): > 100 µM | TGI (NCI/ADR-RES ovarian): > 100 µM | TGI (K-562 leukemia): > 100 µM | TGI (SN12C renal): > 100 µM | TGI (MDA-MB-435): > 100 µM

COc1ccc(P2(=S)OCCOP(=S)(c3ccc(OC)cc3)S2)cc1 (stereo not drawn)
TGI (HL-60(TB) leukemia): > 23.3 µM | TGI (NCI-H522 lung): 6.11 µM | TGI (SW-620 colon): > 100 µM | TGI (MALME-3M melanoma): > 100 µM | TGI (HOP-92 NSCLC): > 100 µM | TGI (UO-31 renal): > 50.7 µM | TGI (A498 renal): 7.05 µM | TGI (OVCAR-5 ovarian): > 100 µM | TGI (M14 melanoma): > 100 µM | TGI (SK-MEL-5 melanoma): > 41.9 µM | TGI (HOP-62 NSCLC): > 100 µM | TGI (786-0 renal): > 42 µM | TGI (A549 NSCLC): > 100 µM | TGI (SK-MEL-2 melanoma): > 100 µM | TGI (OVCAR-8 ovarian): > 61.6 µM | TGI (SNB-19 CNS): > 100 µM | TGI (MOLT-4 leukemia): > 39.5 µM | TGI (T-47D breast): > 100 µM | TGI (ACHN renal): > 100 µM | TGI (NCI-H23 lung): > 100 µM | TGI (SK-MEL-28 melanoma): > 100 µM | TGI (KM12 colon): > 100 µM | TGI (U251 CNS): > 100 µM | TGI (SF-268 CNS): > 100 µM | TGI (LOX IMVI melanoma): 42.6 µM | TGI (NCI-H460 lung): > 32.2 µM | TGI (OVCAR-3 ovarian): 6.11 µM | TGI (EKVX NSCLC): > 100 µM | TGI (CCRF-CEM leukemia): 25.1 µM | TGI (SR leukemia): > 100 µM | TGI (CAKI-1 renal): > 100 µM | TGI (UACC-62 melanoma): > 100 µM | TGI (SNB-75 CNS): > 100 µM | TGI (COLO 205 colon): 55.8 µM | TGI (NCI-H226 lung): > 100 µM | TGI (DU-145 prostate): > 100 µM | TGI (MCF7 breast): 19.4 µM | TGI (IGROV1 ovarian): > 100 µM | TGI (HCT-116 colon): > 100 µM | TGI (HS 578T breast): > 100 µM | TGI (SF-295 CNS): > 27.6 µM | TGI (UACC-257 melanoma): > 79.8 µM | TGI (PC-3 prostate): 5.48 µM | TGI (HCT-15 colon): > 100 µM | TGI (MDA-MB-231 breast): > 100 µM | TGI (HCC-2998 colon): 7.5 µM | TGI (OVCAR-4 ovarian): > 100 µM | TGI (TK-10 renal): > 100 µM | TGI (BT-549 breast): > 79.9 µM | TGI (SF-539 CNS): 6.7 µM | TGI (NCI/ADR-RES ovarian): > 100 µM | TGI (K-562 leukemia): > 100 µM | TGI (SN12C renal): 33.9 µM | TGI (MDA-MB-435): 40.7 µM
